This note sets out measurements from ChEMBL document CHEMBL3351627, “Design and synthesis of 3-isoxazolidone derivatives as new Chlamydia trachomatis inhibitors” (Bioorg Med Chem Lett, 2014).

The source made the active and inactive calls. The rule behind the calls is not given here.

Data set [1] concerns Chlamydia trachomatis. Nature of the data set: Bacteriostatic activity against Chlamydia trachomatis serovar L2 infected in human HeLa cells assessed as growth inhibition compound treated at >100 uM for 1 hr prior infection measured 24 hrs post infection by microscopy in presence of 200 uM iron citrate. Type of data set: functional, organism-based.
Data set [2] relates to Chlamydia trachomatis. Nature of the data set: Bacteriostatic activity against Chlamydia trachomatis serovar L2 infected in human HeLa cells assessed as growth inhibition compound treated at >100 uM for 1 hr prior infection measured 24 hrs post infection by microscopy. Type of data set: functional, organism-based.
Data set [3] relates to Chlamydia trachomatis. As to the kind of experiment: Bactericidal activity against Chlamydia trachomatis serovar L2 infected in human HeLa cells assessed as reduction in inclusion forming unit compound treated at 5 to 25 uM for 1 hr prior infection measured 24 hrs post infection by immunofluorescence assay in presence of 200 uM iron citrate. Type of data set: functional, organism-based.

Data set [4] can be described thus: Iron chelating activity of the compound at pH 7.4 by UV-visible spectrophotometric titration. Type of data set: physicochemical.
Data set [5] concerns Chlamydia trachomatis. Nature of the data set: Bactericidal activity against Chlamydia trachomatis serovar L2 infected in human HeLa cells assessed as growth inhibition compound treated for 1 hr prior infection measured 24 hrs post infection by microscopy. Type of data set: functional, organism-based.
A short description of data set [6]: Cytotoxicity against mouse fibroblasts at 5 to 200 uM after 24 to 48 hrs by trypan blue exclusion assay. In kind it is cell-based. Conditions: fibroblast.
For data set [7], the system named is Chlamydia trachomatis. Nature of the data set: Bactericidal activity against Chlamydia trachomatis serovar L2 infected in human HeLa cells assessed as growth inhibition compound treated at 50 to 200 uM for 1 hr prior infection measured 24 hrs post infection by microscopy. In kind it is functional, organism-based.
In data set [8] the test system is HeLa. Nature of the data set: Cytotoxicity against human HeLa cells at 5 to 200 uM after 24 to 48 hrs by trypan blue exclusion assay. Type of data set: cell-based.
Data set [9] relates to Chlamydia trachomatis. Nature of the data set: Bactericidal activity against Chlamydia trachomatis serovar L2 infected in human HeLa cells assessed as growth inhibition compound treated at 100 to 200 uM for 1 hr prior infection measured 24 hrs post infection by microscopy in presence of 200 uM iron citrate. In kind it is functional, organism-based.
Data set [10] concerns Chlamydia trachomatis. Nature of the data set: Bactericidal activity against Chlamydia trachomatis serovar L2 infected in human HeLa cells assessed as growth inhibition compound treated at 5 to 200 uM for 1 hr prior infection measured 24 hrs post infection by microscopy. Type of data set: functional, organism-based.
Data set [11] relates to Chlamydia trachomatis. As to the kind of experiment: Bactericidal activity against Chlamydia trachomatis serovar L2 infected in human HeLa cells assessed as growth inhibition compound treated at 200 uM for 1 hr prior infection measured 24 hrs post infection by microscopy. In kind it is functional, organism-based.

`CC(=O)N(O)CCCCCNC(=O)CCC(=O)N(O)CCCCCNC(=O)CCC(=O)N(O)CCCCCN`: the “growth inhibition (GI)” value in data set [1] is “inactive”. The “growth inhibition (GI)” value in [2] was “Active”.
Take `N[C@@H]1CONC1=O`: in [3], the outcome was Active.
As for `O=C(N[C@@H]1CON(CCCCOC(=O)c2cccc(O)c2O)C1=O)c1cccc(O)c1O`, the Activity entry in data set [4] is “Active”; in [6], “Non-toxic”; in data set [8], “Non-toxic”. For the same compound, the “growth inhibition (GI)” value in data set [5] was “Dose-dependent effect”. Also, the “growth inhibition (GI)” value in data set [7] was “Active”.
`O=C(NCCN1OC[C@@H](NC(=O)c2ccc3cccc(O)c3n2)C1=O)c1ccc2cccc(O)c2n1`: the values for the Activity result in data set [4], in [6] and in data set [8] were “Not Active”, “Non-toxic” and “Non-toxic”, respectively. Moreover, the “growth inhibition (GI)” value in [5] is “Dose-dependent effect”. For the same compound, the result in data set [3] was Active. Besides, the “growth inhibition (GI)” value in [9] and in data set [10] was “Active” each time.
In the case of `O=C(NCCOC1=NOC[C@H]1NC(=O)c1cccc(O)c1O)c1cccc(O)c1O`, the Activity entry is “Active” in data set [4], “Non-toxic” in data set [6] and “Non-toxic” in data set [8]. Moreover, the outcome in data set [3] was Active. Further, the “growth inhibition (GI)” value in data set [11] is “Active”.
As for `COc1cccc(C(=O)N[C@@H]2CON(CCc3c[nH]cn3)C2=O)c1OC`, in data set [5], the “growth inhibition (GI)” value is “Dose-dependent effect”. Also, the Activity result in data set [6] and in data set [8] was “Non-toxic” throughout. Also, the “growth inhibition (GI)” value in data set [10] was “inactive”.
Consider `O=C(NCCN1OC[C@@H](NC(=O)c2cccc(O)c2O)C1=O)c1cccc(O)c1O`, for which the Activity result in data set [4] is recorded as “Active”; in [6], “Non-toxic”; in data set [8] it was “Non-toxic”. For the same compound, in data set [5], the “growth inhibition (GI)” value was “Dose-dependent effect”. Moreover, the result in data set [3] was Active. Besides, in [7], the “growth inhibition (GI)” value is “Active”.
Take `O=C(NCCN1OC[C@@H](NC(=O)c2ccc3ccccc3n2)C1=O)c1ccc2ccccc2n1`: the Activity entry is on record as “Not Active” in data set [4], “Non-toxic” in data set [6] and “Non-toxic” in [8]. Also, the “growth inhibition (GI)” value in [5] was “Dose-dependent effect”. The outcome in [3] was Active. Moreover, the “growth inhibition (GI)” value in [10] was “inactive”.
With `O=C(N[C@@H]1CON(CCc2c[nH]cn2)C1=O)c1cccc(O)c1O`, the “growth inhibition (GI)” value in data set [5] is “Dose-dependent effect”. Also, the Activity entry in data set [6] and in data set [8] was “Non-toxic” each time. Besides, the “growth inhibition (GI)” value in data set [10] was “Active”.
Take `O=C(N[C@@H]1CON(CCOC(=O)c2cccc(O)c2O)C1=O)c1cccc(O)c1O`: the Activity entry in [4] was “Active”; in data set [6], “Non-toxic”; in [8], “Non-toxic”. Besides, the “growth inhibition (GI)” value in [5] is “Dose-dependent effect”. The “growth inhibition (GI)” value in data set [11] was “Active”.
